{
  "source": "the supplement of paper PMC10307832",
  "test_in_all_cases": "relative viability (nuclei count vs DMSO), 5 days (fraction); higher = more cells survive",
  "key": {"[1]": {"compound": "C1=CC=C(C(=C1)C2=CC=C(C=C2)C3=CSC4=C3C(=C(C(=O)N4)C#N)O)O + CC(C)C[C@H](NC(=O)[C@H](Cc1ccccc1)NC(=O)c1cnccn1)B(O)O [Bortezomib] (partner 0.002 µM)", "outline": "(§1)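 Each reported value is a median over duplicate plates. It expresses relative viability: treated-well nuclei count divided by vehicle-well nuclei count. Lung cancer cell lines in 1536-well plates were dosed by pin tool a day after seeding, alone with one drug or with a fixed anchor-drug dose plus five library-drug doses (not always all listed) in √10 steps, and nuclei were counted after 5 days.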"}, "[2]": {"compound": "CC1=CN2C(=O)C=C(N=C2C(=C1)C(C)NC3=CC=CC=C3)N4CCOCC4 [TGX 221] + C[C@@H](Oc1cc(-c2cnn(C3CCNCC3)c2)cnc1N)c1c(Cl)ccc(F)c1Cl [Crizotinib] (partner 1 µM)", "outline": "as §1"}, "[3]": {"compound": "CC1=CN2C(=O)C=C(N=C2C(=C1)C(C)NC3=CC=CC=C3)N4CCOCC4 [TGX 221] + Cc1nc(Nc2ncc(C(=O)Nc3c(C)cccc3Cl)s2)cc(N2CCN(CCO)CC2)n1 [Dasatinib] (partner 0.075 µM)", "outline": "as §1"}, "[4]": {"compound": "CC1=CN2C(=O)C=C(N=C2C(=C1)C(C)NC3=CC=CC=C3)N4CCOCC4 [TGX 221] + CC(C)C[C@H](NC(=O)[C@H](Cc1ccccc1)NC(=O)c1cnccn1)B(O)O [Bortezomib] (partner 0.002 µM)", "outline": "as §1"}},
  "data": [
    {"cell line": "PC-14", "values": [
      {"measurement": "relative viability", "setting": "[1]; first compound 0.08 µM", "result": 0.801},
      {"measurement": "relative viability", "setting": "[1]; first compound 0.253 µM", "result": 0.81},
      {"measurement": "relative viability", "setting": "[1]; first compound 0.8 µM", "result": 0.812},
      {"measurement": "relative viability", "setting": "[1]; first compound 2.53 µM", "result": 1.07},
      {"measurement": "relative viability", "setting": "[1]; first compound 8 µM", "result": 0.88},
      {"measurement": "relative viability", "setting": "[2]; first compound 0.08 µM", "result": 0.934},
      {"measurement": "relative viability", "setting": "[2]; first compound 0.253 µM", "result": 0.845},
      {"measurement": "relative viability", "setting": "[2]; first compound 0.8 µM", "result": 0.865},
      {"measurement": "relative viability", "setting": "[2]; first compound 2.53 µM", "result": 0.85},
      {"measurement": "relative viability", "setting": "[2]; first compound 8 µM", "result": 0.885},
      {"measurement": "relative viability", "setting": "[3]; first compound 0.08 µM", "result": 0.246},
      {"measurement": "relative viability", "setting": "[3]; first compound 0.253 µM", "result": 0.22},
      {"measurement": "relative viability", "setting": "[3]; first compound 0.8 µM", "result": 0.3},
      {"measurement": "relative viability", "setting": "[3]; first compound 2.53 µM", "result": 0.272},
      {"measurement": "relative viability", "setting": "[3]; first compound 8 µM", "result": 0.221},
      {"measurement": "relative viability", "setting": "[4]; first compound 0.08 µM", "result": 0.895},
      {"measurement": "relative viability", "setting": "[4]; first compound 0.253 µM", "result": 0.89},
      {"measurement": "relative viability", "setting": "[4]; first compound 0.8 µM", "result": 0.828},
      {"measurement": "relative viability", "setting": "[4]; first compound 2.53 µM", "result": 0.804},
      {"measurement": "relative viability", "setting": "[4]; first compound 8 µM", "result": 0.874}
    ]},
    {"cell line": "RERF-LC-KJ", "values": [
      {"measurement": "relative viability", "setting": "[1]; first compound 0.08 µM", "result": 0.995},
      {"measurement": "relative viability", "setting": "[1]; first compound 0.253 µM", "result": 1.1},
      {"measurement": "relative viability", "setting": "[1]; first compound 0.8 µM", "result": 1.22},
      {"measurement": "relative viability", "setting": "[1]; first compound 2.53 µM", "result": 1.1},
      {"measurement": "relative viability", "setting": "[1]; first compound 8 µM", "result": 1.05},
      {"measurement": "relative viability", "setting": "[2]; first compound 0.08 µM", "result": 0.736},
      {"measurement": "relative viability", "setting": "[2]; first compound 0.253 µM", "result": 0.832},
      {"measurement": "relative viability", "setting": "[2]; first compound 0.8 µM", "result": 0.752},
      {"measurement": "relative viability", "setting": "[2]; first compound 2.53 µM", "result": 0.781},
      {"measurement": "relative viability", "setting": "[2]; first compound 8 µM", "result": 0.795},
      {"measurement": "relative viability", "setting": "[3]; first compound 0.08 µM", "result": 0.692},
      {"measurement": "relative viability", "setting": "[3]; first compound 0.253 µM", "result": 0.795},
      {"measurement": "relative viability", "setting": "[3]; first compound 0.8 µM", "result": 0.811},
      {"measurement": "relative viability", "setting": "[3]; first compound 2.53 µM", "result": 0.764},
      {"measurement": "relative viability", "setting": "[3]; first compound 8 µM", "result": 0.744},
      {"measurement": "relative viability", "setting": "[4]; first compound 0.08 µM", "result": 0.908},
      {"measurement": "relative viability", "setting": "[4]; first compound 0.253 µM", "result": 1.06},
      {"measurement": "relative viability", "setting": "[4]; first compound 0.8 µM", "result": 1.27},
      {"measurement": "relative viability", "setting": "[4]; first compound 2.53 µM", "result": 0.961},
      {"measurement": "relative viability", "setting": "[4]; first compound 8 µM", "result": 1.01}
    ]},
    {"cell line": "SK-LU-1", "values": [
      {"measurement": "relative viability", "setting": "[1]; first compound 0.253 µM", "result": 0.83},
      {"measurement": "relative viability", "setting": "[1]; first compound 0.8 µM", "result": 1.12},
      {"measurement": "relative viability", "setting": "[1]; first compound 2.53 µM", "result": 1.36},
      {"measurement": "relative viability", "setting": "[1]; first compound 8 µM", "result": 1.16},
      {"measurement": "relative viability", "setting": "[2]; first compound 0.08 µM", "result": 0.836},
      {"measurement": "relative viability", "setting": "[2]; first compound 0.253 µM", "result": 0.809},
      {"measurement": "relative viability", "setting": "[2]; first compound 0.8 µM", "result": 0.901},
      {"measurement": "relative viability", "setting": "[2]; first compound 2.53 µM", "result": 0.825},
      {"measurement": "relative viability", "setting": "[2]; first compound 8 µM", "result": 0.803},
      {"measurement": "relative viability", "setting": "[3]; first compound 0.08 µM", "result": 0.203},
      {"measurement": "relative viability", "setting": "[3]; first compound 0.253 µM", "result": 0.181},
      {"measurement": "relative viability", "setting": "[3]; first compound 0.8 µM", "result": 0.165},
      {"measurement": "relative viability", "setting": "[3]; first compound 2.53 µM", "result": 0.129},
      {"measurement": "relative viability", "setting": "[3]; first compound 8 µM", "result": 0.128},
      {"measurement": "relative viability", "setting": "[4]; first compound 0.08 µM", "result": 1.04},
      {"measurement": "relative viability", "setting": "[4]; first compound 0.253 µM", "result": 1.09},
      {"measurement": "relative viability", "setting": "[4]; first compound 0.8 µM", "result": 1.04},
      {"measurement": "relative viability", "setting": "[4]; first compound 2.53 µM", "result": 1.38},
      {"measurement": "relative viability", "setting": "[4]; first compound 8 µM", "result": 1.11}
    ]},
    {"cell line": "SW 1573", "values": [
      {"measurement": "relative viability", "setting": "[1]; first compound 0.08 µM", "result": 0.823},
      {"measurement": "relative viability", "setting": "[1]; first compound 0.253 µM", "result": 1.02},
      {"measurement": "relative viability", "setting": "[1]; first compound 0.8 µM", "result": 1.12},
      {"measurement": "relative viability", "setting": "[1]; first compound 2.53 µM", "result": 1.04},
      {"measurement": "relative viability", "setting": "[1]; first compound 8 µM", "result": 0.88},
      {"measurement": "relative viability", "setting": "[2]; first compound 0.08 µM", "result": 0.723},
      {"measurement": "relative viability", "setting": "[2]; first compound 0.253 µM", "result": 0.72},
      {"measurement": "relative viability", "setting": "[2]; first compound 0.8 µM", "result": 0.74},
      {"measurement": "relative viability", "setting": "[2]; first compound 2.53 µM", "result": 0.769},
      {"measurement": "relative viability", "setting": "[2]; first compound 8 µM", "result": 0.756},
      {"measurement": "relative viability", "setting": "[3]; first compound 0.08 µM", "result": 0.402},
      {"measurement": "relative viability", "setting": "[3]; first compound 0.253 µM", "result": 0.501},
      {"measurement": "relative viability", "setting": "[3]; first compound 0.8 µM", "result": 0.403},
      {"measurement": "relative viability", "setting": "[3]; first compound 2.53 µM", "result": 0.406},
      {"measurement": "relative viability", "setting": "[3]; first compound 8 µM", "result": 0.574},
      {"measurement": "relative viability", "setting": "[4]; first compound 0.08 µM", "result": 0.91},
      {"measurement": "relative viability", "setting": "[4]; first compound 0.253 µM", "result": 1.09},
      {"measurement": "relative viability", "setting": "[4]; first compound 0.8 µM", "result": 1.04},
      {"measurement": "relative viability", "setting": "[4]; first compound 2.53 µM", "result": 0.945},
      {"measurement": "relative viability", "setting": "[4]; first compound 8 µM", "result": 0.839}
    ]},
    {"cell line": "UMC-11", "values": [
      {"measurement": "relative viability", "setting": "[1]; first compound 0.08 µM", "result": 0.519},
      {"measurement": "relative viability", "setting": "[1]; first compound 0.253 µM", "result": 0.742},
      {"measurement": "relative viability", "setting": "[1]; first compound 0.8 µM", "result": 0.56},
      {"measurement": "relative viability", "setting": "[1]; first compound 2.53 µM", "result": 0.8},
      {"measurement": "relative viability", "setting": "[1]; first compound 8 µM", "result": 0.487},
      {"measurement": "relative viability", "setting": "[2]; first compound 0.08 µM", "result": 0.66},
      {"measurement": "relative viability", "setting": "[2]; first compound 0.253 µM", "result": 0.559},
      {"measurement": "relative viability", "setting": "[2]; first compound 0.8 µM", "result": 0.557},
      {"measurement": "relative viability", "setting": "[2]; first compound 2.53 µM", "result": 0.591},
      {"measurement": "relative viability", "setting": "[2]; first compound 8 µM", "result": 0.661},
      {"measurement": "relative viability", "setting": "[3]; first compound 0.08 µM", "result": 0.481},
      {"measurement": "relative viability", "setting": "[3]; first compound 0.253 µM", "result": 0.437},
      {"measurement": "relative viability", "setting": "[3]; first compound 0.8 µM", "result": 0.436},
      {"measurement": "relative viability", "setting": "[3]; first compound 2.53 µM", "result": 0.535},
      {"measurement": "relative viability", "setting": "[3]; first compound 8 µM", "result": 0.492},
      {"measurement": "relative viability", "setting": "[4]; first compound 0.08 µM", "result": 0.873},
      {"measurement": "relative viability", "setting": "[4]; first compound 0.253 µM", "result": 0.772},
      {"measurement": "relative viability", "setting": "[4]; first compound 0.8 µM", "result": 0.823},
      {"measurement": "relative viability", "setting": "[4]; first compound 2.53 µM", "result": 0.745},
      {"measurement": "relative viability", "setting": "[4]; first compound 8 µM", "result": 0.796}
    ]}
  ]
}
